Reference: ChEMBL document CHEMBL1132332, “A novel acetylated analogue of dynorphin A-(1-11) amide as a kappa-opioid receptor antagonist” (J Med Chem, 1999)
Square brackets hold non-standard residues; d marks the D form. Peptide text beside a SMILES is read from it.

How the values were obtained:
[1] = biological target: Kappa-type opioid receptor (Homo sapiens, UniProt P41145); assay: The compound was tested for binding affinity against Opioid receptor kappa 1 by using [3H]Diprenorphine as a radioligand
Kappa-type opioid receptor, sequence (P41145 whole entry): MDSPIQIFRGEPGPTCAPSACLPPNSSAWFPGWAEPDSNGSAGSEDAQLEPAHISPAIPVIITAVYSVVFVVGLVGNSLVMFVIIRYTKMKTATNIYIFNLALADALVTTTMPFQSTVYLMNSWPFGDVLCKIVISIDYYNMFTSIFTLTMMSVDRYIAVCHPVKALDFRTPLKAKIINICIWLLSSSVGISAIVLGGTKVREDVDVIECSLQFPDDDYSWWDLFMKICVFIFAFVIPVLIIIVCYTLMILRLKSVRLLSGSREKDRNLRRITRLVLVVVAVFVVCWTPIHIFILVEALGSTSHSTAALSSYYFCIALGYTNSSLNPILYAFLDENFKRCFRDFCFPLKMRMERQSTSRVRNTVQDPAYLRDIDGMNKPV

[2] = biological target: Delta-type opioid receptor (Homo sapiens, UniProt P41143); assay: The compound was tested for binding affinity against Opioid receptor delta 1 by using [3H]- DPDPE as a radioligand
Delta-type opioid receptor, sequence (P41143 whole entry): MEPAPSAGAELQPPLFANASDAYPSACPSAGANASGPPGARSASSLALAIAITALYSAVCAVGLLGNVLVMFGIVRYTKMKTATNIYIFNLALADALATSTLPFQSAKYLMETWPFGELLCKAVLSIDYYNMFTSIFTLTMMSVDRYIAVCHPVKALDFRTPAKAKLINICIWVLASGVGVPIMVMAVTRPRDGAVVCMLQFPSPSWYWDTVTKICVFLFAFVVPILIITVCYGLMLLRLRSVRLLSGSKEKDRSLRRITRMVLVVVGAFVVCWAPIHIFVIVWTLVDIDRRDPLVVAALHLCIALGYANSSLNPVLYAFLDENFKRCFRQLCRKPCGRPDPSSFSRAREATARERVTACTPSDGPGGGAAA

Mu-type opioid receptor = Mu-type opioid receptor (Homo sapiens, UniProt P35372); assay: The compound was tested for binding affinity against Opioid receptor mu 1 by using [3H]DAMGO as a radioligand
Mu-type opioid receptor, sequence (P35372 whole entry): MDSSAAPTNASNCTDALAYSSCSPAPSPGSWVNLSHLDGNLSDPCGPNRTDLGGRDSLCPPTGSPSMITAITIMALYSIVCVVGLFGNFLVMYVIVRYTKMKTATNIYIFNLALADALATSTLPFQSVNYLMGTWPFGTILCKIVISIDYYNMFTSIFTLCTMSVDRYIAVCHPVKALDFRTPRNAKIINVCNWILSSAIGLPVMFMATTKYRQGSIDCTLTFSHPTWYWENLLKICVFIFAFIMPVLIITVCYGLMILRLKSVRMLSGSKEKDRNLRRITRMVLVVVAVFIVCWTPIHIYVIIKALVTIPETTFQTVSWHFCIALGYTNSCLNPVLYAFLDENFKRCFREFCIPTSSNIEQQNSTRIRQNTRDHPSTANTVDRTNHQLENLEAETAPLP

Row | Compound | Ki [1] | Ki [2] | Ki (Mu-type opioid receptor)
1 | CC(C)C[C@H](NC(=O)[C@H](Cc1ccccc1)NC(=O)CNC(=O)CNC(=O)[C@@H](N)Cc1ccc(O)cc1)C(=O)N[C@@H](CCCN=C(N)N)C(=O)N[C@@H](CCCN=C(N)N)C(=O)N[C@H](C)C(=O)N[C@@H](CCCN=C(N)N)C(=O)N1CCC[C@H]1C(=O)N[C@@H](CCCCN)C(N)=O | 0.19 nM | 12.2 nM | 1.97 nM
2 | CC(=O)N[C@@H](Cc1ccc(O)cc1)C(=O)N[C@@H](CCCCN)C(=O)N[C@@H](Cc1c[nH]c2ccccc12)C(=O)N[C@@H](Cc1c[nH]c2ccccc12)C(N)=O (Ac-YKWW-NH2) | 1370 nM | 3480 nM | 3590 nM
3 | CC(=O)N[C@@H](Cc1ccc(O)cc1)C(=O)N[C@@H](CCCCN)C(=O)N[C@@H](Cc1c[nH]c2ccccc12)C(=O)N[C@@H](Cc1c[nH]c2ccccc12)C(=O)N[C@@H](CC(C)C)C(=O)N[C@@H](CCCN=C(N)N)C(=O)N[C@@H](CCCN=C(N)N)C(=O)N[C@H](C)C(=O)N[C@@H](CCCN=C(N)N)C(=O)N1CCC[C@H]1C(=O)N[C@@H](CCCCN)C(N)=O (Ac-YKWWLRR[dA]RPK-NH2) | 19.8 nM | 5320 nM | 251 nM
